*1 amine or outer side, *2 acyl side, *3 side chain or, on linkers, in order; H or OH if unused. Where a SMILES comes first, the peptide text is derived from it. Side-chain parts run from the residue outwards. [ ]: non-standard residue; d: D form. The star is where a group is joined. C18 diacid = O=C(O)CCCCCCCCCCCCCCCCC(=O)*; γGlu = O=C(O)[C@H](CCC(=O)[*:2])N[*:1]; Desaminohistidyl = O=C(CCc1c[nH]cn1)*; AEEA = NCCOCCOCC(=O)O; Aib = CC(C)(N)C(=O)O
Biological target: T1, human GLP-1 receptor (Homo sapiens, UniProt P43220)
T1 construct: expressed in transfected cells; host or cells: membranes of BHK cells, parent line BHKTS13, clone FCW467-12A
Assay: Assay (I)(a): GLP-1 receptor potency, CRE luciferase reporter gene assay in BHK cells
Type: cell-based
Conditions: BHK cells expressing human GLP-1 receptor, read-out: EC50 GLP-1R
Procedure: Assay (I): GLP-1 and Glucagon Receptor Potency The purpose of this example was to test the activity or potency, of the GLP-1 derivatives of the invention, in vitro. The in vitro potency is the measure of human GLP-1 receptor (GLP-1R) or glucagon receptor (glucagonR) activation, respectively, in a whole cell assay. In vitro potency was determined by measuring the cellular response of human GLP-1 or glucagon receptor activation, respectively, in a reporter gene assay. The assay was performed in a BHK cell line that stably expresses either the human GLP-1 receptor or the human glucagon receptor and comprises the DNA for the cAMP response element (CRE) coupled to a promoter and the gene for firefly luciferase (CRE luciferase). […] When assay incubation was completed, the luciferase substrate (luciferin) was added and the enzyme converted luciferin to oxyluciferin and produces bioluminescence. The luminescence was measured as the readout for the assay. (a) GLP-1 Receptor Activation The cells used in this assay (clone FCW467-12A/KZ10-1) were BHK cells with BHKTS13 as a parent cell line. The cells were derived from a clone (FCW467-12A) that expresses the human GLP-1 receptor and were established by further transfection with CRE luciferase to obtain the current clone. The cells were cultured at 5% CO2 in DMEM medium with 10% FBS, 1×GlutaMAX, 1 mg/ml G418, 240 nM MTX (methotrexate) and 1% pen/strep (penicillin/streptomycin). They were aliquoted and stored in liquid nitrogen. Before each assay, an aliquot was taken up and washed three times in PBS before being suspended at the desired concentration in assay medium. For 96-well plates the suspension was made to give a final concentration of 5×10EE3 cells/well. The following chemicals were used in the assay: Pluronic F-68 (10%) (Gibco 2404), Ovalbumin (Sigma A5503), DMEM w/o phenol red (Gibco 11880-028), 1 M Hepes (Gibco 15630), Glutamax 100× (Gibco 35050) and steadylite plus (PerkinElmer 6016757). Assay Medium consisted of DMEM w/o phenol red, 10 mM Hepes, 1×GlutaMAX, 2% Ovalbumin and 0.2% Pluronic F-68. Cell stocks were thawed in a 37° C. water bath. Cells were washed three times in PBS. The cells were counted and adjusted to 5×10EE3 cells/50 μl (1×10EE5 cells/ml) in Assay Medium. A 50 μl aliquot of cells was transferred to each well in the assay plate. Stocks of the test compounds and reference compounds were diluted to a concentration of […] in Assay Medium. Compounds were diluted 10-fold to give the following concentrations: 2×10EE-6 M, 2×10EE-7 M, 2×10EE-8 M; 2×10EE-9 M, 2×10EE-10 M, 2×10EE-11 M, 2×10EE-12 M and 2×10EE-13 M. For each compound a blank assay medium control was also included. A 50 μl aliquot of compound or blank was transferred from the dilution plate to the assay plate. Compounds were tested at the following final concentrations: 1×10EE-6 M, 1×10EE-7 M, 1×10EE-8 M; 1×10EE-9 M, 1×10EE-10 M, 1×10EE-11 M and 1×10EE-12 M and 1×10EE-13 M. The assay plate was incubated for 3 h in a 5% CO2 incubator at 37° C. The assay plate was removed from the incubator and allowed to stand at room temperature for 15 min. A 100 μl aliquot of steadylite plus reagent was added to each well of the assay plate (reagent is light sensitive). Each assay plate was covered with aluminum foil to protect it from light and shaken for 30 min at room temperature. Each assay plate was read in a Perkin Elmer TopCount NXT instrument. The data from the TopCount instrument was transferred to GraphPad Prism software. The software performed a non-linear regression (log(agonist) vs response-Variable slope (four parameter)). EC50 values were calculated by the software and reported in pM.

T1 sequence (P43220 24-463): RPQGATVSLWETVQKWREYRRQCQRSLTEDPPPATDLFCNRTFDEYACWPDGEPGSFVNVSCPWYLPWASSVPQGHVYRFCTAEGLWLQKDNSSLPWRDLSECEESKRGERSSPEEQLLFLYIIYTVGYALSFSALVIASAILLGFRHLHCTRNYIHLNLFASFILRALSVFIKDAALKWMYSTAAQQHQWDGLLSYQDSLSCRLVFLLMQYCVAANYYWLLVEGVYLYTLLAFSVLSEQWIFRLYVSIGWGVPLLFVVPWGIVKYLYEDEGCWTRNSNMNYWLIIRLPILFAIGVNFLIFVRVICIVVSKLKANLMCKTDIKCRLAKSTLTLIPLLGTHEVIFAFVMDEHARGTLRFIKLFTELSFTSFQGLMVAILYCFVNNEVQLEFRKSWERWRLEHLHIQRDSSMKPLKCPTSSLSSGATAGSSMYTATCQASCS

Row | EC50 [pM] | Structure (SMILES)
1 | 8 | CC[C@H](C)[C@H](NC(=O)[C@H](Cc1ccccc1)NC(=O)[C@H](CCCCNC(=O)COCCOCCNC(=O)COCCOCCNC(=O)CC[C@H](NC(=O)CC[C@H](NC(=O)CC[C@H](NC(=O)CCCCCCCCCCCCCCCCC(=O)O)C(=O)O)C(=O)O)C(=O)O)NC(=O)[C@H](CCCNC(=N)N)NC(=O)[C@H](C)NC(=O)[C@H](C)NC(=O)[C@H](CCC(N)=O)NC(=O)[C@H](CCC(=O)O)NC(=O)[C@H](CCC(=O)O)NC(=O)[C@H](CC(C)C)NC(=O)[C@H](Cc1ccc(O)cc1)NC(=O)[C@H](CCCNC(=N)N)NC(=O)[C@H](CO)NC(=O)[C@@H](NC(=O)[C@H](CC(=O)O)NC(=O)[C@H](CO)NC(=O)[C@@H](NC(=O)[C@H](Cc1ccccc1)NC(=O)[C@@H](NC(=O)CNC(=O)[C@H](Cc1c[nH]cn1)NC(=O)[C@H](C)NC(=O)CCc1c[nH]cn1)[C@@H](C)O)[C@@H](C)O)C(C)C)C(=O)N[C@@H](C)C(=O)N[C@@H](Cc1c[nH]c2ccccc12)C(=O)N[C@@H](CC(C)C)C(=O)N[C@@H](CC(C)C)C(=O)N[C@@H](CCCNC(=N)N)C(=O)O [Example 18, N^ε27-[2-[2-[2-[[2-[2-[2-[[(4S)-4-carboxy-4-[[(4S)-4-carboxy-4-[[(4S)-4-carboxy-4-(17-carboxyheptadecanoylamino)butanoyl]amino]butanoyl]amino]butanoyl]amino]ethoxy]ethoxy]acetyl]amino]ethoxy]ethoxy]acetyl]-[Imp7,His9,Arg18,Glu22,Arg26,Lys27,Leu33,Arg34]-GLP-1-(7-34)-peptide] (Desaminohistidyl-AHGTFTSDVSRYLEEQAARK([AEEA-AEEA-γGlu-γGlu-γGlu-C18 diacid])FIAWLLR-OH)
2 | 3 | CC[C@H](C)[C@H](NC(=O)[C@H](Cc1ccccc1)NC(=O)[C@H](CCC(=O)O)NC(=O)[C@H](CCCNC(=N)N)NC(=O)[C@H](C)NC(=O)[C@H](C)NC(=O)[C@H](CCC(N)=O)NC(=O)[C@H](C)NC(=O)[C@H](CCC(=O)O)NC(=O)[C@H](CC(C)C)NC(=O)[C@H](Cc1ccc(O)cc1)NC(=O)[C@H](CCCCN)NC(=O)[C@H](CO)NC(=O)[C@@H](NC(=O)[C@H](CC(=O)O)NC(=O)[C@H](CO)NC(=O)[C@@H](NC(=O)[C@H](Cc1ccccc1)NC(=O)[C@@H](NC(=O)CNC(=O)[C@H](Cc1c[nH]cn1)NC(=O)C(C)(C)NC(=O)CCc1c[nH]cn1)[C@@H](C)O)[C@@H](C)O)C(C)C)C(=O)N[C@@H](C)C(=O)N[C@@H](Cc1c[nH]c2ccccc12)C(=O)N[C@@H](CC(C)C)C(=O)N[C@@H](CC(C)C)C(=O)N[C@@H](CCCCNC(=O)CC[C@H](NC(=O)CC[C@H](NC(=O)COCCOCCNC(=O)CC[C@H](NC(=O)CC[C@H](NC(=O)CCCCCCCCCCCCCCCCC(=O)O)C(=O)O)C(=O)O)C(=O)O)C(=O)O)C(=O)N[C@H](C(N)=O)[C@@H](C)O [Example 34, N^ε34-[(4S)-4-carboxy-4-[[(4S)-4-carboxy-4-[[2-[2-[2-[[(4S)-4-carboxy-4-[[(4S)-4-carboxy-4-(17-carboxyheptadecanoylamino)butanoyl]amino]butanoyl]amino]ethoxy]ethoxy]acetyl]amino]butanoyl]amino]butanoyl]-[Imp7,Aib8,His9,Lys18,Ala22,Arg26,Leu33,Thr35]-GLP-1-(7-35)-peptide amide] (Desaminohistidyl-[Aib]HGTFTSDVSKYLEAQAAREFIAWLLK([γGlu-γGlu-AEEA-γGlu-γGlu-C18 diacid])T-NH2)

Source: US9988430B2, “Stable GLP-1 based GLP-1/glucagon receptor co-agonists” (Novo Nordisk A/S, priority 2014, dated 2018)
